Results taken from the NIST ThermoML archive (doi:10.1021/je0340755).

Assay: xn = mol fraction of the nth substance listed
Details: 101.3 kPa, Liquid; for viscosity: Capillary tube (Ostwald / Ubbelohde) method

CC(O)CCO (stereo not given) [1,3-butanediol] + O
Details	mass density [kg/m3]	speed of sound [m/s]	viscosity [mPa·s]
298.15 K, x2 = 0.045	1001	1544.1	92.65
298.15 K, x2 = 0.1445	1003.36	1569.1	81.12
298.15 K, x2 = 0.2499	1006.05	1594.2	67.64
298.15 K, x2 = 0.3526	1008.62	1613.2	54.19
298.15 K, x2 = 0.4519	1011.07	1631.1	41.72
298.15 K, x2 = 0.5035	1012.39	1643.5	35.66
298.15 K, x2 = 0.5563	1013.79	1652.1	29.86
298.15 K, x2 = 0.6507	1016.24	1682	20.66
298.15 K, x2 = 0.7518	1017.77	1702	12.64
298.15 K, x2 = 0.8477	1015.59	1681.6	6.82
298.15 K, x2 = 0.9081	1010.74	1673.4	4.008
298.15 K, x2 = 0.9152	1009.95	1660.2	3.719
298.15 K, x2 = 0.9253	1008.73	1645	3.322
298.15 K, x2 = 0.9355	1007.4	1615.2	2.937
298.15 K, x2 = 0.9521	1005.03	1610.8	2.348
298.15 K, x2 = 0.9543	1004.7	1599.6	2.273
298.15 K, x2 = 0.9597	1003.86	1576.9	2.093
298.15 K, x2 = 0.9699	1002.22	1551.3	1.765
298.15 K, x2 = 0.9804	1000.46	1525.7	1.444
298.15 K, x2 = 0.9901	998.79	1519.4	1.163
298.15 K, x2 = 0.9924	998.38	1510.8	1.098
298.15 K, x2 = 0.9955	997.84	1527.6	1.012
308.15 K, x2 = 0.045	995.14	1500.6	49.94
308.15 K, x2 = 0.1445	997.4	1520.3	43.43
308.15 K, x2 = 0.2499	999.97	1538.6	36.09
308.15 K, x2 = 0.3526	1002.45	1561.8	29.07
308.15 K, x2 = 0.4519	1004.84	1585.2	22.69
308.15 K, x2 = 0.5035	1006.14	1597	19.58
308.15 K, x2 = 0.5563	1007.52	1609.3	16.57
308.15 K, x2 = 0.6507	1009.99	1634.5	11.66
308.15 K, x2 = 0.7518	1011.69	1666.3	7.207
308.15 K, x2 = 0.8477	1010.07	1684	3.905
308.15 K, x2 = 0.9081	1005.92	1665.1	2.337
308.15 K, x2 = 0.9152	1005.23	1659.9	2.179
308.15 K, x2 = 0.9253	1004.18	1657.3	1.965
308.15 K, x2 = 0.9355	1003.02	1640.7	1.759
308.15 K, x2 = 0.9521	1000.96	1619.1	1.45
308.15 K, x2 = 0.9543	1000.67	1615.8	1.411
308.15 K, x2 = 0.9597	999.94	1607.2	1.318
308.15 K, x2 = 0.9699	998.52	1589	1.15
308.15 K, x2 = 0.9804	996.99	1567.4	0.99
308.15 K, x2 = 0.9901	995.53	1544.6	0.851
308.15 K, x2 = 0.9924	995.19	1536.8	0.819
308.15 K, x2 = 0.9955	994.71	1530.7	0.778
318.15 K, x2 = 0.045	989.57	1474.8	28.95
318.15 K, x2 = 0.1445	991.66	1492.5	25.16
318.15 K, x2 = 0.2499	994.06	1509.5	20.85
318.15 K, x2 = 0.3526	996.38	1531.8	16.64
318.15 K, x2 = 0.4519	998.64	1554.7	12.79
318.15 K, x2 = 0.5035	999.86	1566.6	10.94
318.15 K, x2 = 0.5563	1001.18	1579.1	9.164
318.15 K, x2 = 0.6507	1003.55	1604.8	6.346
318.15 K, x2 = 0.7518	1005.28	1638.6	3.879
318.15 K, x2 = 0.8477	1004.06	1662.4	2.11
318.15 K, x2 = 0.9081	1000.51	1652.9	1.304
318.15 K, x2 = 0.9152	999.92	1649.3	1.226
318.15 K, x2 = 0.9253	999	1643	1.122
318.15 K, x2 = 0.9355	998	1635.1	1.024
318.15 K, x2 = 0.9521	996.21	1618.5	0.881
318.15 K, x2 = 0.9543	995.96	1616	0.864
318.15 K, x2 = 0.9597	995.33	1609.2	0.824
318.15 K, x2 = 0.9699	994.09	1594.8	0.753
318.15 K, x2 = 0.9804	992.76	1577.4	0.69
318.15 K, x2 = 0.9901	991.5	1558.9	0.639
318.15 K, x2 = 0.9924	991.2	1554.1	0.628
318.15 K, x2 = 0.9955	990.8	1547.5	0.615
328.15 K, x2 = 0.045	980.01	1456.8	17.94
328.15 K, x2 = 0.1445	982.02	1473	15.5
328.15 K, x2 = 0.2499	984.33	1489.7	12.68
328.15 K, x2 = 0.3526	986.62	1509.9	9.939
328.15 K, x2 = 0.4519	988.88	1530.8	7.454
328.15 K, x2 = 0.5035	990.12	1542.3	6.269
328.15 K, x2 = 0.5563	991.47	1554.1	5.15
328.15 K, x2 = 0.6507	993.99	1579.6	3.415
328.15 K, x2 = 0.7518	996.11	1612.2	1.97
328.15 K, x2 = 0.8477	995.8	1638.8	1.028
328.15 K, x2 = 0.9081	993.31	1635.3	0.666
328.15 K, x2 = 0.9152	992.87	1633	0.636
328.15 K, x2 = 0.9253	992.19	1628.7	0.598
328.15 K, x2 = 0.9355	991.44	1622.5	0.565
328.15 K, x2 = 0.9521	990.11	1610.6	0.525
328.15 K, x2 = 0.9543	989.92	1608.3	0.521
328.15 K, x2 = 0.9597	989.45	1603.1	0.512
328.15 K, x2 = 0.9699	988.53	1591.7	0.5
328.15 K, x2 = 0.9804	987.55	1578.7	0.495
328.15 K, x2 = 0.9901	986.62	1563.6	0.496
328.15 K, x2 = 0.9924	986.41	1559.6	0.497
328.15 K, x2 = 0.9955	986.11	1555	0.499
338.15 K, x2 = 0.045	972.67	1438.1	11.63
338.15 K, x2 = 0.1445	974.54	1452.7	9.961
338.15 K, x2 = 0.2499	976.7	1468.1	8.015
338.15 K, x2 = 0.3526	978.84	1486.2	6.116
338.15 K, x2 = 0.4519	980.99	1506.1	4.415
338.15 K, x2 = 0.5035	982.18	1516.1	3.616
338.15 K, x2 = 0.5563	983.48	1527.9	2.874
338.15 K, x2 = 0.6507	985.94	1552	1.759
338.15 K, x2 = 0.7518	988.14	1584.1	0.895
338.15 K, x2 = 0.8477	988.28	1611.3	0.418
338.15 K, x2 = 0.9081	986.44	1614.1	0.302
338.15 K, x2 = 0.9152	986.1	1612.4	0.299
338.15 K, x2 = 0.9253	985.58	1609.7	0.298
338.15 K, x2 = 0.9355	985	1606.3	0.301
338.15 K, x2 = 0.9521	983.95	1597.7	0.317
338.15 K, x2 = 0.9543	983.8	1596.6	0.32
338.15 K, x2 = 0.9597	983.44	1592.9	0.329
338.15 K, x2 = 0.9699	982.72	1585.4	0.348
338.15 K, x2 = 0.9804	981.96	1575.5	0.374
338.15 K, x2 = 0.9901	981.25	1565.5	0.403
338.15 K, x2 = 0.9924	981.09	1561.7	0.411
338.15 K, x2 = 0.9955	980.87	1558.4	0.422
